Measured values as given in patent publication US11318141B2, “Methods and compositions related to STK1-targeted small molecules as antibiotic resistance breakers” (Ohio State Innovation Foundation, priority 2017, dated 2022).
pIC50: −log10 of the molar value.

Legend:
[1] = biological target: S. aureus STKK1 (the soluble kinase domain of STK1, 280 aa) (Staphylococcus aureus, UniProt A0ABF7PGK0); experiment: In vitro kinase assay: inhibition of autophosphorylation of recombinant STKK1 (γ32P-ATP); format: biochemical; conditions: after 5 min pre-incubation
Sequence of S. aureus STKK1 (the soluble kinase domain of STK1, 280 aa) (A0ABF7PGK0 entry or part of it): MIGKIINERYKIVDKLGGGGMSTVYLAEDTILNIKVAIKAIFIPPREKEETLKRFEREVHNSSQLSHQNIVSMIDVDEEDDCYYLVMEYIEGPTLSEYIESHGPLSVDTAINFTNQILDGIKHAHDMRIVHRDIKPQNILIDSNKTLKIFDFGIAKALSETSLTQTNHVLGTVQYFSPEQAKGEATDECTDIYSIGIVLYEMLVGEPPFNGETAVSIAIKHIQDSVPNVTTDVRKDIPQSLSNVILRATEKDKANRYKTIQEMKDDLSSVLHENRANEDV
Procedure: For the present study, recombinant His-tag-STKK1 was created along with part of the adjacent juxta-membrane domain (1-280 aa) using the pET14b vector system and specific primers (Table-1 and Table-2) as described previously. The recombinant proteins were expressed in BL21 DE3 (pLysS) and purified using Ni^+2-NTA-affinity chromatography, dialyzed against 10 mM Tris/HCl, pH 7.5, and stored as 10% glycerol stock (500 μg/ml) at −20° C. as described previously. In vitro kinase assays were performed using 2 μg STKK1 in the presence of 1 μCi γ^32P-ATP (specific activity 3000 Ci/mMol, PerkinElmer) at 30° C. for 45 min in a final volume of 30 μl phosphorylation buffer (50 mM Tris/HCl, pH7.5, 1 mM dithiothreitol, 5 mM MgCl2, and/or 5 mM MnCl2). The inhibition of autophosphorylation of STKK1 was carried out using this assay in the presence and absence of (50 μM) individual members of the 32 prescreened small molecule compound library. Phosphorylated proteins were separated by SDS-PAGE and subsequently identified by using Coomassie stain and autoradiography. The individual phosphorylated protein bands were then excised and subjected to radioactive counting using beta-scintillation counter for quantitative analysis. Experiments were repeated at least three times for statistical analysis.

[2] = test system: S. aureus MW2 wild-type; experiment: Checkerboard titration end-point bactericidal assay (MBC), Muller-Hinton agar; format: cell-based, Staphylococcus aureus; conditions: agent alone
Procedure: FIGS. 15A-15B show checkerboard assays for determining bactericidal assay. Serial two-fold dilutions of 2 mM of Inh2-B1 (MW=411.58 g/mol) and (A) 3 mM ceftriaxone (MW=669.7 g/mol) were made in two separate 96-well plates in vertical (B1-B12 to H1-H2 wells) and horizontal (A2-H2 to A12-H12 wells) directions respectively. Serially diluted Inh2-B1 (100 μL) in the individual well was then mixed with the 100 μL serially diluted ceftriaxone present in the corresponding wells. The resulting various combinations of Inh2-B1 (starting from 1 mM) and ceftriaxone (starting from 1.5 mM) or cefotaxime (2.1 mM) as well as serially diluted one Inh2-B1 (B1 to H1) and ceftriaxone (A2-A12) or cefotaxime (A2-A12) were then incorporated in Muller-Hinton mini agar plates (2 mL). The agar plates were then seeded and diluted S. aureus MW2-wild-type culture equivalent to approximately 23±3 CFU. This checkerboard assay was used to determine the ideal combination of lowest concentration of Inh2-B1 and ceftriaxone that kills 99.9% of the wild-type MW2.
Since the STK1 is not essential for bacterial survival and its absence results in retardation of growth, an end-point bactericidal assay was done, employing the Checkerboard titration method followed by a time-to-kill assay using the broth dilution method. The 96-well plate-based checkerboard titration assays were performed using the fixed number of CFUs of MW2 strain, and the survival of the bacteria was measured on solid agar plates as an end-point result. […] The cut-off value to designate clinical isolates of S. aureus for antibiotics, including Ceftriaxone (TX) and Cefotaxime (CT) as susceptible, is less than 4 μg/ml (i.e., <4.8 μM of TX, and <7 μM of CT). […] CFU counts of MW2-WT grown in the presence of various concentrations of Inh2-B1 were examined over a period of 16 h. […] Similarly, it was also determined CFU counts of MW2-WT and MW2ΔSTK1 strains each grown in the absence or the presence of 50 μM of Inh2-B1 and 1.5 μM Ceftriaxone (1 μg/ml) or […] Cefotaxime (1 μg/ml) for 16 h employing the broth dilution method. […] Further, to address whether MW2 or STK1 could become refractory to a potential combined therapy, the S. aureus MW2 wild-type strain was grown in the presence of suboptimal dose of Inh2-B1 alone and combination with Ceftriaxone and Cefotaxime (25 μM Inh2-B1 and 3 μM of Ceftriaxone or 3 μM Cefotaxime) for consecutive 10 generations.
Subsequently, the susceptibility of S. aureus MW2 strain to Ceftriaxone, Cefotaxime, Inh2, and Inh2-B1 was confirmed by the CLSI recommended serial dilution method using Muller Hinton broth. Minimum bactericidal activity (MBC) was measured using Muller-Hinton agar. Changes in the MBC of Ceftriaxone/Cefotaxime in the presence of serially diluted Inh2-B1 was determined in two steps. Initial screening was carried out using the Checkerboard method using Muller-Hinton agar (FIG. 15). […] Subsequent time to kill assays were carried out using 50 μM Inh2-B1 and Ceftriaxone. Cefotaxime (1 μg/ml) in a final volume of 250 μl using a sterile 96-well (U-bottom) microtiter plate over a period of 16 h at 37° C. under constant rotation (120 rpm). Optical density and corresponding CFU counts were measured at every two-hour interval up to 8 hours with a final overnight reading at the end of incubation period. CFU counts were measured using appropriate dilution of 10 μl of properly mixed samples at each time interval.

COC(=O)c1ccc2c(=O)[nH]c3c(C(=O)Nc4ccccc4)sc(=S)n3c2c1 [Inh2-B1, Methyl 5-oxo-3-(phenylcarbamoyl)-1-thioxo-4,5dihydro[1,3]thiazolo[3,4-a]quinazoline-8-carboxylate]
pIC50 [1]: 4.31
MBC ([2]; Staphylococcus aureus, MW2WILDTYPE, MW2, read-out: Minimum bactericidal concentration (MBC)): 100 µM
concentration up to which growth of MW2 was seen ([2]; further analysis): 90 µM
concentration of wells with ≥1 CFU of wild-type MW2 ([2]; checkerboard): ≤ 50 µM
